Measurements from patent US11504380B2, “Method of treatment of cirrhosis” (INVENTIVA, priority 2019, dated 2022).

How the values were obtained:
Type in all cases: in vivo, Sprague Dawley rats
[1] = system: rat model of cirrhosis induced by the administration of thioacetamide (TAA); assay: AST protein content in plasma of TAA-induced cirrhotic rats; settings: TAA-exposed rats, 100 mg/kg, vs vehicle, p<0.005 (FIG. 8)
Description: (§1) Lanifibranor has been assessed in a rat model of cirrhosis induced by the administration of thioacetamide (TAA), which administration leads to the development of fibrosis in the early time points and then of cirrhosis in the late time points, turning for the majority of the animals to decompensated cirrhosis. Sprague Dawley rats (12-15 rats per groups) were intraperitoneally administered TAA (twice a week) for a period of twelve weeks to ensure reaching decompensated cirrhosis. At the end of this period, a TAA detoxification period of four days was observed. The rats were then orally administered for two weeks with either lanifibranor at 100 mg/kg/day in vehicle (methylcellulose 1%+poloxamer-188 0.1%), or with vehicle alone (control). At the end of the two weeks of treatment in vivo systemic and hepatic hemodynamics were determined and rats were then sacrificed, and plasma samples and liver tissue were harvested.

[2] = system: rat model of cirrhosis induced by the administration of thioacetamide (TAA); assay: Liver tissue mRNA expression by qPCR in TAA-induced cirrhotic rats; settings: TAA-exposed rats, 100 mg/kg
Description: as §1, with “harvested. RNA was extracted from liver tissue using Trizol (Life Technologies), and quantified with the help of a NanoDrop spectrophotometer. Reverse transcription was carried out following QuantiTect reverse transcription kit (Qiagen). qPCR was performed using PowerUp SYBR Green Master Mix (Thermo Fisher) and specific primers.” for “harvested.”

[3] = system: rat model of cirrhosis induced by the administration of thioacetamide (TAA); assay: Liver tissue protein levels by Western blot in TAA-induced cirrhotic rats; settings: TAA-exposed rats, 100 mg/kg, vs vehicle
Description: as §1, with “harvested. Triton lysis buffer was used for protein extraction of liver tissue samples. Proteins were separated by molecular weight by electrophoresis using a sodium dodecylsulphate polyacrylamide gel, and transferred to a nitrocellulose membrane (Western blot).” for “harvested.”

[4] = system: rat model of cirrhosis induced by the administration of thioacetamide (TAA); assay: Liver histology (Sirius Red collagen staining) and electron microscopy of sinusoidal fenestrae in TAA-induced cirrhotic rats; settings: TAA-exposed rats, 100 mg/kg
Description: as §1, with “harvested. Liver tissue samples for histology were fixed in 4% formaldehyde (Sigma), embedded in paraffin, sectioned and stained with 0.1% Sirius Red in picric acid aqueous solution (Sigma). Sinusoidal fenestrae were analyzed by electronic microscopy.” for “harvested.”

[5] = system: rat model of cirrhosis induced by the administration of thioacetamide (TAA); assay: Systemic and hepatic hemodynamics, ascites and body/organ weights in TAA-induced cirrhotic rats; settings: for IHVR (intrahepatic resistance) / PBF (portal blood flow) / PP (portal pressure): 100 mg/kg/day
Description: as §1, with “harvested. The hemodynamics measurements were obtained as follow: mean arterial pressure (MAP) and heart rate (HR) were measured by cannulating the femoral artery; portal pressure (PP) was measured by cannulating the ileocolic vein, both with a heparinized p50 catheter (Portex) connected to a pressure probe; portal blood flow (PBF) was determined with the help of specific non-constrictive perivascular ultrasonic transit-time flow probe (Transonic Systems Inc.).” for “harvested.”

[6] = TAA-exposed rats, 100 mg/kg/day orally for two weeks
[7] = TAA-exposed rats, 100 mg/kg/day orally for two weeks, listed as lanifibranor

## O=C(O)CCCc1cc2cc(Cl)ccc2n1S(=O)(=O)c1ccc2ncsc2c1 [Lanifibranor, 4-[1-(1,3-benzothiazol-6-ylsulfonyl)-5-chloroindol-2-yl]butanoic acid]
[1]
  AST protein content in plasma: significantly decreased
[2]; vs vehicle (FIG. 6)
  VCAM-1 mRNA expression: a trend
[2]; vs vehicle, P<0.05 (FIG. 6)
  E-Selectin mRNA: significant decrease
  ICAM-1 mRNA: significant decrease
[2]; vs vehicle, p<0.001 (FIG. 2)
  TIMP1 mRNA expression: significantly reduced
[2]; vs vehicle, p<0.005 (FIG. 1)
  collagen 1a1 mRNA expression: significant decrease
[2]; vs vehicle, p<0.005 (FIG. 3a)
  α-SMA expression at mRNA level: significantly reduced
[2]; vs vehicle, p<0.05 (FIG. 2)
  TIMP2 mRNA expression: significantly reduced
[2]; vs vehicle, p<0.05 (FIG. 7)
  IL-6 mRNA expression: significantly decreased
[3]; p<0.01 (FIG. 5)
  protein level of Von Willebrand factor: significantly reduced
[3]; p<0.05 (FIG. 3a)
  α-SMA expression at protein level: significantly reduced
[3]; p<0.05 (FIG. 3b)
  protein level of Desmin: significantly reduced
[4]
  collagen deposition (PicroSirius Red, PSR, staining): 12.3%
[4]; vs vehicle, p<0.05 (FIG. 4), electronic microscopy
  sinusoidal capillarization (sinusoidal fenestrae): significantly reduced
[4]; PicroSirius Red staining
  histological decrease in collagen deposition compared to vehicle: 32%
[5]; [6]
  Ascites: 16%
  MAP (mean arterial pressure): 84 ± 2 mmHg
  IHVR (intrahepatic resistance): 0.53 ± 0.06 mmHg · min/mL
  PBF (portal blood flow): 23.5 ± 2.1 mL/min
  PP (portal pressure): 11.2 ± 0.5 mmHg
[5]; [7]
  IHVR (intrahepatic resistance): 0.75±0.1 mmHg · min/mL
  PBF (portal blood flow): no significant changes
  PP (portal pressure): 11.2±0.5 mmHg
[5]; cirrhotic rats administered with lanifibranor vs vehicle
  systemic hemodynamics: No effects
